In patent publication US9133181B2, “Substituted 6-(4-hydroxy-phenyl)-1H-pyrazolo[3,4-b]pyridine derivatives as kinase inhibitors” (SANOFI, priority 2012, dated 2015):

biological target: T1, human full-length recombinant PKC βII (Homo sapiens, UniProt P05771); test: Determination of PKC βII inhibition (Caliper mobility shift kinase assay); assay type: biochemical; details: final compound concentration 1.14 μM (±0.15 μM); 60 min incubation at 32° C.
T1 construct: Active human full-length recombinant PKC βII; purchased Invitrogen GmbH, Darmstadt, Germany
In short: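 Compound was tested at a final 1.14 µM (±0.15 µM), with % inhibition derived from the product/(substrate+product) peak ratio on a Caliper mobility-shift read-out. Full-length PKC βII was activated by CaCl2, PS and DAG in pH 7.4 Hepes/MgCl2. Peptide and ATP were at 3 µM and 120 µM in the added mix. Incubation was 60 min at 32 °C.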

T1 sequence (P05771 1-673 isoform P05771-2): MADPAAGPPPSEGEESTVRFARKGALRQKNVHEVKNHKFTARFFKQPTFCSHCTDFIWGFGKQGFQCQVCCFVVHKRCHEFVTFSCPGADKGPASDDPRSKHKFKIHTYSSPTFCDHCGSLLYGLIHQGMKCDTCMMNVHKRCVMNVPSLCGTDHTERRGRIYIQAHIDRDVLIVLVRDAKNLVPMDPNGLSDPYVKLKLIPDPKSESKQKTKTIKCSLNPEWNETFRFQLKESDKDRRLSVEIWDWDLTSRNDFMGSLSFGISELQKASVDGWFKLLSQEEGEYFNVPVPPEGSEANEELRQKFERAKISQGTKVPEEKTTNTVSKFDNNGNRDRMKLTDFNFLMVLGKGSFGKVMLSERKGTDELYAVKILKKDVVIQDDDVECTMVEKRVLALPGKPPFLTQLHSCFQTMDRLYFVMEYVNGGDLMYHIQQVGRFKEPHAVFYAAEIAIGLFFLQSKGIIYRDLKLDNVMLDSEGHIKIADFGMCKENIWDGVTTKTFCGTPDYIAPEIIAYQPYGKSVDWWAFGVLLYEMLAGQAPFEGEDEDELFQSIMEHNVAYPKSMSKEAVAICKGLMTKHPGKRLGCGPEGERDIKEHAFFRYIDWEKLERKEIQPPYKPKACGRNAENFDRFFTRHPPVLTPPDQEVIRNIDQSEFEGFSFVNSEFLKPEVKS

SMILES | inhibition at 1.14 µM
Cc1n[nH]c2nc(-c3ccc(O)cc3)cc(CN3CC(C)(C)N(CCC(F)(F)F)CC3(C)C)c12 [Example 83, 4-{3-Methyl-4-[2,2,5,5-tetramethyl-4-(3,3,3-trifluoro-propyl)-piperazin-1-ylmethyl]-1H-pyrazolo[3,4-b]pyridin-6-yl}-phenol] | 69%
Cc1n[nH]c2nc(-c3ccc(O)cc3)cc(CN3CC(C)(C)N(C)CC3(C)C)c12 [Example 84, 4-[3-Methyl-4-(2,2,4,5,5-pentamethyl-piperazin-1-ylmethyl)-1H-pyrazolo[3,4-b]pyridin-6-yl]-phenol] | 98%
CNCCN1CC(C)(C)N(Cc2cc(-c3ccc(O)cc3)nc3[nH]nc(C)c23)CC1(C)C [Example 85, 4-{3-Methyl-4-[2,2,5,5-tetramethyl-4-(2-methylamino-ethyl)-piperazin-1-ylmethyl]-1H-pyrazolo[3,4-b]pyridin-6-yl}-phenol] | 101%
COC(=O)CN1CC(C)(C)N(Cc2cc(-c3ccc(O)cc3)nc3[nH]nc(C)c23)CC1(C)C [Example 86, {4-[6-(4-Hydroxy-phenyl)-3-methyl-1H-pyrazolo[3,4-b]pyridin-4-ylmethyl]-2,2,5,5-tetramethyl-piperazin-1-yl}-acetic acid methyl ester] | 86%
COC(=O)CNC(=O)N1CC(C)(C)N(Cc2cc(-c3ccc(O)cc3)nc3[nH]nc(C)c23)CC1(C)C [Example 87, ({4-[6-(4-Hyd roxy-phenyl)-3-methyl-1H-pyrazolo[3,4-b]pyridin-4-ylmethyl]-2,2,5,5-tetramethyl-piperazine-1-carbonyl}-amino)-acetic acid methyl ester] | 92%
CCNC(=O)N1CC(C)(C)N(Cc2cc(-c3ccc(O)cc3)nc3[nH]nc(C)c23)CC1(C)C [Example 88, 4-[6-(4-Hydroxy-phenyl)-3-methyl-1H-pyrazolo[3,4-b]pyridin-4-ylmethyl]-2,2,5,5-tetramethyl-piperazine-1-carboxylic acid ethylamide] | 89%
CCNC(=O)N1CCCN(Cc2cc(-c3ccc(O)cc3F)nc3[nH]nc(C)c23)CC1C (stereo not drawn) [Example 89, 4-[6-(2-Fluoro-4-hydroxy-phenyl)-3-methyl-1H-pyrazolo[3,4-b]pyridin-4-ylmethyl]-2-methyl-[1,4]diazepane-1-carboxylic acid ethylamide] | 76%
COCC(=O)N1CC(C)(C)N(Cc2cc(-c3ccc(O)cc3)nc3[nH]nc(C)c23)CC1(C)C [Example 90, 1-{4-[6-(4-Hydroxy-phenyl)-3-methyl-1H-pyrazolo[3,4-b]pyridin-4-ylmethyl]-2,2,5,5-tetramethyl-piperazin-1-yl}-2-methoxy-ethanone] | 99%
Cc1n[nH]c2nc(-c3ccc(O)cc3)cc(CN3CCN[C@H](CC(F)(F)F)C3)c12 [Example 91, 4-{3-Methyl-4-[(R)-3-(2,2,2-trifluoro-ethyl)-piperazin-1-ylmethyl]-1H-pyrazolo[3,4-b]pyridin-6-yl}-phenol] | 81%
Cc1n[nH]c2nc(-c3ccc(O)cc3)cc(CN3CCNC[C@H]3CC(F)(F)F)c12 [Example 92, 4-{3-Methyl-4-[(R)-2-(2,2,2-trifluoro-ethyl)-piperazin-1-ylmethyl]-1H-pyrazolo[3,4-b]pyridin-6-yl}-phenol] | 99%
CNC1CCN(Cc2cc(-c3ccc(O)cc3)nc3[nH]nc(C)c23)C1 (stereo not drawn) [Example 93, 4-[3-Methyl-4-(3-methylamino-pyrrolidin-1-ylmethyl)-1H-pyrazolo[3,4-b]pyridin-6-yl]-phenol] | 81%
Cc1n[nH]c2nc(-c3ccc(O)cc3)cc(CN(C)C3CCNC3)c12 (stereo not drawn) [Example 94, 4-{3-Methyl-4-[(methyl-pyrrolidin-3-yl-amino)-methyl]-1H-pyrazolo[3,4-b]pyridin-6-yl}-phenol] | 92%
Oc1ccc(-c2cc(CN3CCNCC3)c3c(C4CC4)n[nH]c3n2)cc1 [Example 95, 4-(3-Cyclopropyl-4-piperazin-1-ylmethyl-1H-pyrazolo[3,4-b]pyridin-6-yl)-phenol] | 53%
CCc1n[nH]c2nc(-c3ccc(O)cc3)cc(CN3CCNCC3)c12 [Example 96, 4-(3-Ethyl-4-piperazin-1-ylmethyl-1H-pyrazolo[3,4-b]pyridin-6-yl)-phenol] | 74%
Cc1n[nH]c2nc(-c3ccc(O)cc3F)cc(C(C)N3CCNCC3)c12 (stereo not drawn) [Example 97, 3-Fluoro-4-[3-methyl-4-(1-piperazin-1-yl-ethyl)-1H-pyrazolo[3,4-b]pyridin-6-yl]-phenol] | 96%

Continued, values first:

inhibition at 1.14 µM | SMILES
87% | Cc1n[nH]c2nc(-c3ccc(O)cc3F)cc(C(C)N3C[C@@H](C)N[C@@H](C)C3)c12 (stereo partly drawn) [Example 98, 4-{4-[1-((3S,5R)-3,5-Dimethyl-piperazin-1-yl)-ethyl]-3-methyl-1H-pyrazolo[3,4-b]pyridin-6-yl}-3-fluoro-phenol]
92% | Cc1n[nH]c2nc(-c3ccc(O)cc3F)cc(CN3C[C@@H](c4ccccc4)NC[C@@H]3C)c12 [Example 99, 3-Fluoro-4-[3-methyl-4-((2S,5R)-2-methyl-5-phenyl-piperazin-1-ylmethyl)-1H-pyrazolo[3,4-b]pyridin-6-yl]-phenol]
86% | Cc1n[nH]c2nc(-c3ccc(O)cc3F)cc(CN3C[C@H](c4ccccc4)NC[C@H]3C)c12 [Example 100, 3-Fluoro-4-[3-methyl-4-((2R,5S)-2-methyl-5-phenyl-piperazin-1-ylmethyl)-1H-pyrazolo[3,4-b]pyridin-6-yl]-phenol]
52% | Cc1n[nH]c2nc(-c3ccc(O)cc3F)cc(CN3CCNC[C@@H]3c3ccc(C(C)C)cc3)c12 [Example 101, 3-Fluoro-4-{4-[(S)-2-(4-isopropyl-phenyl)-piperazin-1-ylmethyl]-3-methyl-1H-pyrazolo[3,4-b]pyridin-6-yl}-phenol]
85% | Cc1n[nH]c2nc(-c3ccc(O)cc3F)cc(CN3CCNC[C@H]3c3ccc(C(C)C)cc3)c12 [Example 102, 3-Fluoro-4-{4-[(R)-2-(4-isopropyl-phenyl)-piperazin-1-ylmethyl]-3-methyl-1H-pyrazolo[3,4-b]pyridin-6-yl}-phenol]
53% | Cc1n[nH]c2nc(-c3ccc(O)cc3F)cc(CN3CCNC[C@@H]3c3ccc(C(F)(F)F)cc3)c12 [Example 103, 3-Fluoro-4-{3-methyl-4-[(S)-2-(4-trifluoromethyl-phenyl)-piperazin-1-ylmethyl]-1H-pyrazolo[3,4-b]pyridin-6-yl}-phenol]
83% | Cc1n[nH]c2nc(-c3ccc(O)cc3F)cc(CN3CCNC[C@H]3c3ccc(C(F)(F)F)cc3)c12 [Example 104, 3-Fluoro-4-{3-methyl-4-[(R)-2-(4-trifluoromethyl-phenyl)-piperazin-1-ylmethyl]-1H-pyrazolo[3,4-b]pyridin-6-yl}-phenol]
100% | Cc1n[nH]c2nc(-c3ccc(O)cc3F)cc(CN3CCNC[C@@H]3c3ccc(F)cc3)c12 [Example 105, 3-Fluoro-4-{4-[(S)-2-(4-fluoro-phenyl)-piperazin-1-ylmethyl]-3-methyl-1H-pyrazolo[3,4-b]pyridin-6-yl}-phenol]
104% | Cc1n[nH]c2nc(-c3ccc(O)cc3F)cc(CN3CCNC[C@H]3c3ccc(F)cc3)c12 [Example 106, 3-Fluoro-4-{4-[(R)-2-(4-fluoro-phenyl)-piperazin-1-ylmethyl]-3-methyl-1H-pyrazolo[3,4-b]pyridin-6-yl}-phenol]
